melting point	Compound
85 to 88 °C	OCC1=CCOc2ccc(Cl)cc21
56 to 60 °C	CCCCC1CCc2ccc(OCc3ccccn3)cc2C1=O (configuration not stated)
146 to 147 °C	Cc1nc[nH]c1CSCCNC1=NCCS(=O)(=O)N1
223 to 224 °C	O=C(Nc1ccc(F)cc1O)c1cc(Cl)c(O)c(Cl)c1
112 °C	COC=C(C(=O)OC)N(C)N1CSC(Br)=C1c1ccc(Br)cc1
152 to 154 °C	CCCC(=O)N1CCc2nnc(NN=C(C)C)cc2C1
106 to 107 °C	CC(=O)c1ccc(CCNS(=O)(=O)c2ccc(F)cc2)cc1
161 to 165 °C	CC1CCC(N(CC2CCC(CN(C(=O)Nc3ccc(N4CCCCC4)cc3)C3CCC(C)CC3)CC2)C(=O)Nc2ccc(N3CCCCC3)cc2)CC1 (configuration not stated)
119 to 120 °C	CCOC(=O)C(c1ccc(Nc2nc(-c3cccc(NC(=O)c4ccc(C(C)(C)C)cc4)c3C)cn(C)c2=O)cc1)N(C)C(C)C (configuration not stated)
> 266 °C	NS(=O)(=O)c1cccc(-c2cn(-c3cc(C(F)(F)F)cc(-c4ccc(C(F)(F)F)cc4)n3)cn2)c1
128 to 130 °C	Cc1oc(-c2ccc(C(F)(F)F)cc2)nc1COc1ccc(/C=C/Cn2oc(=O)[nH]c2=O)cc1
> 300 °C	CCn1c(N)c(C(N)=O)c(=O)c2ccc(-c3ccncc3)cc21
111 to 113 °C	Cc1ccc(-c2nnc(-c3ccco3)s2)cc1
148 °C	CCn1cnc2c(Nc3cccc(C(=O)OC)c3)nc(Cl)nc21
147 to 148 °C	Oc1cc(Cl)c(-n2cnnn2)cc1Oc1ccc(Cl)cc1Cl
63 to 65 °C	CCN(CC)CCOc1ccc2c(c1)cc(OC)c1cc(OCCN(CC)CC)ccc12
213 to 215 °C	COC(=O)CCc1ccc(-n2ncn(-c3ccc(C#N)cc3)c2=O)cc1
120 to 121 °C	COc1cccc(C(=C/C=C/C(=O)NC(C)(C)CCCc2cccnc2)c2cccc(OC)c2)c1
108 °C	[O-][N+](=Cc1ccc(OCc2ccccc2)cc1)C1CCCCCCC1
239 to 240 °C	COC(=O)C1=C(C)Nc2ncnn2C1c1cccs1 (configuration not stated)
207 to 211 °C	CC(C)c1ccc2nc3ccc(C#N)cc3c(=O)n2c1
48 to 50 °C	COc1ccc(C2CCN(CCCCc3ccccc3)CC2)cc1
185 to 186 °C	COc1c(F)c(F)cc2c(=O)c(C(=O)O)cn(C3CC3)c12
141 to 142 °C	Cc1c2c(c(C(O)c3ccc(C(C)C)cc3)c(C)c1NC(=O)OC(C)(C)C)OC(C)C2 (configuration not stated)

melting point	Compound
147 to 148 °C	CCOC(=O)C(C)(C)c1ccc(N[C@@H](CCC(N)=O)C(=O)O)cc1
196 to 198 °C	CCOC(=O)c1cn(C2CC2)c2oc(CN3CCOCC3)cc2c1=O
223 to 224 °C	N#CNC=Nc1ccc(-c2cc[nH]n2)cc1
120 to 124 °C	COCc1cnc2c([N+](=O)[O-])ccc(C)c2c1Cl
230 °C	O=C1CCN2C(=O)c3cccc(-n4c(=O)[nH]c5cnccc5c4=O)c3C2C1 (configuration not stated)
105 to 106 °C	CCCCCc1ccc(OCC(O)CCCCCCC(=O)O)cc1 (configuration not stated)
192 °C	O=C(O)C=Cc1cc(Oc2c(Cl)cc(C(F)(F)F)cc2Cl)ccc1[N+](=O)[O-]
82 to 83 °C	CC(C)(C)OC(=O)C=Cc1ccc2c(c1)OCO2
167 to 168 °C	COc1cc(OC)c(-c2cc3ccccc3n2C)cc1C=CC(=O)c1ccc(S(=O)(=O)NCCN2CCOCC2)cc1
93 to 94 °C	CCNC(=O)N(CCO)Cc1cc([N+](=O)[O-])ccc1OC
175 to 178 °C	CC(C)(C)c1nc(-c2ccc3c(c2)OCO3)[nH]c1C(C)(C)C
51 to 56 °C	CCCCCCCCCCCCCCCCCC(=O)OC1CC(C)(C)N(OCC(C)(C)O)C(C)(C)C1
87 to 98 °C	O=C(CCCCCCCCC(=O)N(CCO)CCO)N(CCO)CCO
115 to 117 °C	CCOC(=O)COc1cc(-n2ncc(=O)n(C)c2=O)c(Cl)cc1Cl
133 to 135 °C	COC(=O)c1cc(-c2ccncc2)sc1-c1ccncc1
257 to 260 °C	O=C1NCc2c1cc1ccc3c(c1c2-c1ccc(OCc2ccccc2)cc1)OCO3
90 °C	Cc1nn(CCOc2ccc(C=O)cc2)c(=O)c2ccccc12
208 to 210 °C	CCOC(=O)c1cn(CCCl)c2cc(Cl)ccc2c1=O
111 to 112 °C	CCOC(=O)/C=C/c1cn(Cc2ccc(OCc3ccccc3)cc2)cc1-c1ccccc1
65 °C	CCOC(=O)C(=CNc1cccnc1OC)C(=O)OCC
102 to 104 °C	CN(CCN1CCN(Cc2ccc(C(F)(F)F)cc2)CC1)C[C@@]1(C)Cn2cc([N+](=O)[O-])nc2O1
258 to 262 °C	CC(=O)Nc1cccc2c1NC(=O)C2c1ccccc1 (configuration not stated)
186 to 188 °C	COc1cc(Nc2c(C#N)cnc3cc(/C=C/CCO)c(OC)cc23)c(Cl)cc1Cl
114 to 117 °C	CCCCCCCCCCCCNC(=O)c1cc(-c2ccc(OC)cc2)c(OCCO)c(-c2cccc(Cl)c2)c1

melting point	Compound
108 to 110 °C	N#CCCSCc1nccc(NC(=S)NCC(F)(F)F)n1
152 to 153 °C	CC1=CC(OC(=O)c2ccc(N)cc2)C(O)C(C)(C)CC1=O (configuration not stated)
175 to 176 °C	COc1cccc(C2CCCN(C(=O)Cc3cc4ccccc4o3)C2)c1 (configuration not stated)
75 °C	OC(CNCCc1ccsc1)c1ccccc1 (configuration not stated)
106 °C	CC(C)(C)OC(=O)NCCNS(=O)(=O)c1ccc(Br)s1
216 to 218 °C	CNC(=S)NCCn1c(=O)ccc2c(C)cc(C)nc21
178 °C	CC(=O)N1Cc2nc(Cl)nc(Nc3ccc(F)c(Cl)c3)c2N=C1Cl
216 to 217 °C	CN1CCN(c2cc3c(F)cccc3c(=O)[nH]2)CC1CO (configuration not stated)
116 °C	CC1(C)CC(=O)c2c(O)cc(C=Cc3ccccc3)cc2O1
135 °C	CCS(=O)(=O)Nc1cc(-c2nsc(C(F)(F)F)c2Cl)c(Cl)cc1Cl
208 °C	CCCN(CCC)S(=O)(=O)c1cc(OC)c(OC)cc1C=Cc1nc2c(c(=O)n(CCC)c(=O)n2CCC)n1C
173 °C	O=C(Nc1ccc2ccc(Cl)nc2n1)N1CC=CCC1
115 to 116 °C	CCOC(=O)C(=C1CCCN1C)c1cc(OC)c(OC)c(OC)c1
187 to 189 °C	COc1ccc([N+](=O)[O-])c(C(=O)O)c1OC
137 to 140 °C	COc1ccc(S(=O)(=O)Nc2ccc(COc3ccc4c(c3)CCC(CN(C)C)C4)cc2)cc1 (configuration not stated)
258 to 260 °C	CCOC(=O)c1nnc2ccc(-c3cccs3)cc2c1O
118 to 120 °C	CC[C@H](C1CC1)n1cc(Cl)nc(N2CCc3cc(OC)cc(Cl)c32)c1=O
120 to 122 °C	COc1cc2[nH]ccc(=O)c2cc1OC
193 to 194 °C	COC1(OC)CN(c2cc3c(cc2F)c(=O)c(C(=O)O)cn3-c2ccc(F)cc2F)CC1C (configuration not stated)
173 to 175 °C	O=C1Cc2ccc(-c3ccccc3)cc2N1
210 to 211 °C	O=C(O)Cc1ccc(N2Cc3ccccc3C2=O)cc1
143 °C	Cc1c(OCc2ccc(CC(C)C)cc2)ccc(C(=O)Nc2ccccc2OCCCC(=O)O)c1C
246 to 250 °C	COc1cc(/C=C/C(=O)Oc2ccc(NC(C)=O)cc2)ccc1OC(C)=O
84 to 85 °C	COC(=O)c1cccc(-c2nc(-c3cccc(OC(F)(F)F)c3)cs2)c1

melting point	Compound
167 to 168 °C	COC(=O)c1nc2cccc(C)c2c(O)c1C(=O)OC
169 to 172 °C	CCN1CSC(=Cc2cc(C(C)(C)C)c(O)c(C(C)(C)C)c2)C1=O
63 to 66 °C	COC(=O)c1sc2ccc(SC)cc2c1N(C)C
146 to 148 °C	CCOC=NC1=C(C#N)C(c2ccc(F)c(Cl)c2)c2ccc3ccccc3c2O1 (configuration not stated)
205 to 209 °C	O=C(O)c1ccc2occ(-c3ccccc3)c2c1
91 to 93 °C	COc1cccc(CSc2nnc(-c3ccc4c(c3)CCO4)o2)c1
168 to 170 °C	CS(=O)(=O)c1ccc(-c2oc(C(F)F)cc(=O)c2-c2ccc(Cl)cc2)cc1
259 °C	NS(=O)(=O)c1cccc(NC(=O)c2cnn3c(C(F)(F)F)cc(-c4ccc(C(F)(F)F)c(F)c4)nc23)c1
288 to 290 °C	CC1(C)CC(=O)C2=C(C1)NC1=C(C(=O)CC(C)(C)C1)C2c1cc(Br)cc(Br)c1
152 °C	CC(C)(C)OCC1CN(c2ccc3cc(OCc4ccccc4)ccc3c2)C(=O)O1 (configuration not stated)
94 to 95 °C	CC1(c2nc(NC3CC3)nc(N3CCOCC3)n2)CC1
168 to 170 °C	NS(=O)(=O)c1ccc(-n2nc(C(F)(F)F)cc2-c2ccc(-c3cscn3)cc2)cc1F
290 to 292 °C	CSc1ccc2c(O)c(CS(C)(=O)=O)cnc2c1
185 °C	Cc1ccc(C)n1-c1nc(S(=O)(=O)Nc2cccc(Cl)c2Cl)n[nH]1
167 to 168 °C	CC(NC(=O)Nc1cc(Cl)ccc1CCc1cc(C(C)(C)C)c(O)c(C(C)(C)C)c1)c1ccccc1 (configuration not stated)
76 to 77 °C	OCc1cnoc1-c1ccc(Cl)cc1Cl
132 to 134 °C	CC(Br)c1ccc(-c2ccc(C(=O)c3ccccc3)cc2)cc1 (configuration not stated)
52.3 °C	CCOC(=O)CC(=O)c1ccncn1
74 to 76 °C	CS(=O)(=O)Oc1cccc2c1CCCN2
184 to 186 °C	CCC(=O)OC1(C(=O)CCl)C(C)CC2C3CCC4CC(=O)CCC4(C)C3(F)C(=O)CC21C (configuration not stated)
137 to 138 °C	O=S(=O)(NCCCCCOc1ccc(-n2ccnc2)cc1)c1ccc(Br)cc1
108 to 111 °C	CC1(c2ccc(N)c(C(=O)c3ccccc3)c2)OCCO1
260 °C	NS(=O)(=O)c1ccc(-c2noc(-c3cnn4c(C5CC5)cc(-c5ccc(Cl)cc5)nc34)n2)cc1

Compound	melting point
c1ccc2cc(N3CCNCC3)ncc2c1	95 to 96 °C
NNP(=S)(NN)Oc1ccccc1	94 to 95 °C
COCOc1cc2c(cc1-c1cc(C=CC(=O)O)ccc1O)C(C)(C)CCC2(C)C	101 to 103 °C
COc1cccc(C=O)c1	83 to 84 °C
Cc1cc2c(cc1O)C(C)(C)CC2	70 to 71 °C
O=Cc1ncn2c1[C@@H]1CCCN1C(=O)c1c(Cl)cccc1-2	224 to 225 °C
CN1C(=O)CN=C(c2ccccc2F)c2cc(NC(=O)NC(C)(C)C)ccc21	210 °C
